Tests used:
Format in all cases: in vivo
[1] = system: velvetleaf (Abutilon theophrasti); assay: Test A pre-/postemergence: velvetleaf; conditions: for Velvetleaf plant response rating: Postemergence; for Plant response rating, Velvetleaf: Preemergence
Summary of the method: (§1)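 Whole-plant greenhouse assay in loam/sand. Preemergence directed soil spray plus simultaneous postemergence spray (one- to two-leaf stage, 2–10 cm). Rated visually ~10 days later, 0 = no effect, 100 = complete control.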

[2] = system: pigweed (Amaranthus retroflexus); assay: Test A pre-/postemergence: pigweed; conditions: for Pigweed plant response rating: Postemergence; for Plant response rating, Pigweed: Preemergence
Summary of the method: as §1

[3] = system: morningglory (Ipomoea spp.); assay: Test A pre-/postemergence: morningglory; conditions: for Morningglory plant response rating: Postemergence; for Plant response rating, Morningglory: Preemergence
Summary of the method: as §1

[4] = system: rice (Oryza sativa); assay: Test C flooded paddy test: rice; conditions: scale 0 to 100 (0 no effect, 100 complete control)
Summary of the method: (§2)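 Plants at 2-leaf stage in pots flooded 3 cm above soil; compounds applied directly into the paddy water, depth maintained. Visual rating against controls after 13–15 days in greenhouse, scale 0 (no effect) to 100 (complete control).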

[5] = system: foxtail, giant (giant foxtail, Setaria faberii); assay: Test A pre-/postemergence: foxtail, giant; conditions: for Foxtail, Giant plant response rating: Postemergence; for Plant response rating, Foxtail, Giant: Preemergence
Summary of the method: as §1

[6] = system: corn (Zea mays); assay: Test A pre-/postemergence: corn; conditions: for Corn plant response rating: Postemergence; for Plant response rating, Corn: Preemergence
Summary of the method: as §1

[7] = system: barnyardgrass (Echinochloa crus-galli); assay: Test A pre-/postemergence: barnyardgrass; conditions: for Barnyardgrass plant response rating: Postemergence; for Plant response rating, Barnyardgrass: Preemergence
Summary of the method: as §1

[8] = system: barnyardgrass (Echinochloa crus-galli); assay: Test C flooded paddy test: barnyardgrass; conditions: scale 0 to 100 (0 no effect, 100 complete control)
Summary of the method: as §2

[9] = system: crabgrass, large (large crabgrass, Digitaria sanguinalis); assay: Test A pre-/postemergence: crabgrass, large; conditions: for Crabgrass, Large plant response rating: Postemergence; for Plant response rating, Crabgrass, Large: Preemergence
Summary of the method: as §1

[10] = system: ducksalad (Heteranthera limosa); assay: Test C flooded paddy test: ducksalad; conditions: scale 0 to 100 (0 no effect, 100 complete control)
Summary of the method: as §2

[11] = system: wheat (Triticum aestivum); assay: Test A pre-/postemergence: wheat; conditions: for Wheat plant response rating: Postemergence; for Plant response rating, Wheat: Preemergence
Summary of the method: as §1

[12] = system: sedge, umbrella (small-flower umbrella sedge, Cyperus difformis); assay: Test C flooded paddy test: sedge, umbrella; conditions: scale 0 to 100 (0 no effect, 100 complete control)
Summary of the method: as §2

[13] = 125 g ai/ha, 0 to 100 scale, 0 is no effect, 100 is complete control
[14] = 500 g ai/ha, visual rating on 0 to 100 scale (0 no effect, 100 complete control), approximately ten days
[15] = 125 g ai/ha, 0 to 100 scale (0 no effect, 100 complete control)
[16] = 500 g ai/ha, 0 to 100 scale, 0 is no effect, 100 is complete control
[17] = Flood (flooded paddy test), 62 g ai/ha, visual rating after 13 to 15 days
[18] = Flood (flooded paddy test), 125 g ai/ha, visual rating after 13 to 15 days
[19] = Flood (flooded paddy test), 250 g ai/ha, visual rating after 13 to 15 days
[20] = 125 g ai/ha, 0 to 100 scale where 0 is no effect and 100 is complete control

With Cc1nn(-c2ccc(C(F)(F)F)cc2)nc1Oc1cnn(CC(F)(F)F)c1 [Compound 74] the “Velvetleaf plant response rating” value [1, 13] was 0, the “Velvetleaf plant response rating” value [1, 14] was 0 and the “Plant response rating, Velvetleaf” value [1, 15] was 0. For the same compound, the “Plant response rating, Velvetleaf” value [1, 16] was 0, the “Pigweed plant response rating” value [2, 13] was 0 and the “Pigweed plant response rating” value [2, 14] was 0. The “Plant response rating, Pigweed” value [2, 15] was 0, the “Plant response rating, Pigweed” value [2, 16] was 0 and the “Morningglory plant response rating” value [3, 13] was 0. The “Morningglory plant response rating” value [3, 14] was 0, the “Plant response rating, Morningglory” value [3, 15] was 0 and the “Plant response rating, Morningglory” value [3, 16] was 0. The “Plant response rating, Rice” value [4, 17] was 0, the “Plant response rating, Rice” value [4, 18] was 0 and the “Plant response rating, Rice” value [4, 19] was 0. For the same compound, the “Plant response rating, Rice” value ([4]; Flood, 31 g ai/ha) was 0, the “Foxtail, Giant plant response rating” value [5, 13] was 0 and the “Foxtail, Giant plant response rating” value [5, 14] was 0. The “Plant response rating, Foxtail, Giant” value [5, 15] was 0, the “Plant response rating, Foxtail, Giant” value [5, 16] was 0 and the “Corn plant response rating” value [6, 13] was 0. The “Corn plant response rating” value [6, 14] was 0, the “Plant response rating, Corn” value [6, 15] was 0 and the “Plant response rating, Corn” value [6, 16] was 0. The “Barnyardgrass plant response rating” value [7, 13] was 0, the “Barnyardgrass plant response rating” value [7, 14] was 0 and the “Plant response rating, Barnyardgrass” value [7, 15] was 0. The “Plant response rating, Barnyardgrass” value [7, 16] was 0, the “Plant response rating, Barnyardgrass” value [8, 17] was 0 and the “Plant response rating, Barnyardgrass” value [8, 18] was 0. The “Plant response rating, Barnyardgrass” value [8, 19] was 0, the “Plant response rating, Barnyardgrass” value ([8]; Flood, 31 g ai/ha) was 0 and the “Crabgrass, Large plant response rating” value [9, 13] was 0. For the same compound, the “Crabgrass, Large plant response rating” value [9, 14] was 0, the “Plant response rating, Crabgrass, Large” value [9, 15] was 0 and the “Plant response rating, Crabgrass, Large” value [9, 16] was 0. For the same compound, the “Plant response rating, Ducksalad” value [10, 17] was 0, the “Plant response rating, Ducksalad” value [10, 18] was 0 and the “Plant response rating, Ducksalad” value [10, 19] was 0. For the same compound, the “Plant response rating, Ducksalad” value ([10]; Flood, 31 g ai/ha) was 0, the “Wheat plant response rating” value [11, 13] was 0 and the “Wheat plant response rating” value [11, 14] was 0. For the same compound, the “Plant response rating, Wheat” value [11, 15] was 0, the “Plant response rating, Wheat” value [11, 16] was 0 and the “Plant response rating, Sedge, Umbrella” value [12, 17] was 0. The “Plant response rating, Sedge, Umbrella” value [12, 18] was 0, the “Plant response rating, Sedge, Umbrella” value [12, 19] was 0 and the “Plant response rating, Sedge, Umbrella” value ([12]; Flood, 31 g ai/ha) was 0.

Cc1nn(-c2cccc(I)c2)nc1C(=O)c1cccc(C(F)(F)F)c1 [Compound 90] was tested, and the “Velvetleaf plant response rating” value [1, 13] was 0, the “Velvetleaf plant response rating” value [1, 14] was 0 and the “Plant response rating, Velvetleaf” value [1, 20] was 0. The “Plant response rating, Velvetleaf” value [1, 16] was 0, the “Pigweed plant response rating” value [2, 13] was 0 and the “Pigweed plant response rating” value [2, 14] was 30. The “Plant response rating, Pigweed” value [2, 20] was 0, the “Plant response rating, Pigweed” value [2, 16] was 0 and the “Morningglory plant response rating” value [3, 13] was 0. For the same compound, the “Morningglory plant response rating” value [3, 14] was 10, the “Plant response rating, Morningglory” value [3, 20] was 0 and the “Plant response rating, Morningglory” value [3, 16] was 0. For the same compound, the “Plant response rating, Rice” value [4, 18] was 0, the “Plant response rating, Rice” value [4, 19] was 0 and the “Plant response rating, Rice” value ([4]; Flood, 31 g ai/ha) was 0. The “Plant response rating, Rice” value ([4]; Flood, 62 g ai/ha) was 0, the “Foxtail, Giant plant response rating” value [5, 13] was 0 and the “Foxtail, Giant plant response rating” value [5, 14] was 10. The “Plant response rating, Foxtail, Giant” value [5, 20] was 0, the “Plant response rating, Foxtail, Giant” value [5, 16] was 0 and the “Corn plant response rating” value [6, 13] was 0. For the same compound, the “Corn plant response rating” value [6, 14] was 10, the “Plant response rating, Corn” value [6, 15] was 0 and the “Plant response rating, Corn” value [6, 16] was 0. The “Barnyardgrass plant response rating” value [7, 13] was 0, the “Barnyardgrass plant response rating” value [7, 14] was 10 and the “Plant response rating, Barnyardgrass” value [7, 15] was 0. For the same compound, the “Plant response rating, Barnyardgrass” value [7, 16] was 0, the “Plant response rating, Barnyardgrass” value [8, 18] was 0 and the “Plant response rating, Barnyardgrass” value [8, 19] was 0. For the same compound, the “Plant response rating, Barnyardgrass” value ([8]; Flood, 31 g ai/ha) was 0, the “Plant response rating, Barnyardgrass” value ([8]; Flood, 62 g ai/ha) was 0 and the “Crabgrass, Large plant response rating” value [9, 13] was 0. The “Crabgrass, Large plant response rating” value [9, 14] was 10, the “Plant response rating, Crabgrass, Large” value [9, 15] was 0 and the “Plant response rating, Crabgrass, Large” value [9, 16] was 0. The “Plant response rating, Ducksalad” value [10, 18] was 0, the “Plant response rating, Ducksalad” value [10, 19] was 0 and the “Plant response rating, Ducksalad” value ([10]; Flood, 31 g ai/ha) was 0. The “Plant response rating, Ducksalad” value ([10]; Flood, 62 g ai/ha) was 0, the “Wheat plant response rating” value [11, 13] was 0 and the “Wheat plant response rating” value [11, 14] was 0. For the same compound, the “Plant response rating, Wheat” value [11, 20] was 0, the “Plant response rating, Wheat” value [11, 16] was 0 and the “Plant response rating, Sedge, Umbrella” value [12, 18] was 0. The “Plant response rating, Sedge, Umbrella” value [12, 19] was 0, the “Plant response rating, Sedge, Umbrella” value ([12]; Flood, 31 g ai/ha) was 0 and the “Plant response rating, Sedge, Umbrella” value ([12]; Flood, 62 g ai/ha) was 0.
